Where two headings read alike, the source gives them in different places.
What was measured:
[1] = cited from earlier work
[2] = in vivo; details: rat, po
Description: (§1) A therapeutic index is an indication of the therapeutic usefulness of a compound, and such an index may be defined in various ways. One type of therapeutic index commonly used is the ratio LD50/ED50, wherein LD50 is the dose that causes a 50 percent lethality, and ED50 is the dose that causes a 50 percent reduction of tumour size. Another type of therapeutic index, useful in evaluation of increasing survival time, is the ratio between maximum and minimum effective dose. Both these types of therapeutic indexes are used and given in the experimental results below.
(§2) The manner of administration of the compounds is by the oral (p. o.) route in each case.
(§3) Experimental animals: Female Sprague Dawley rats
(§4) Tumour implants: Tumour pieces with 2-3 mm diameter, implanted subcutaneously
(§5) Therapy: The compound is administered p. o. once on the day after the implantation
(§6) Evaluation: Weight of tumour is determined in test animals and compared with those of control animals. For each compound the LD50 and ED50 dose (as defined above) are determined. The therapeutic index, T. I., (LD50/ED50) is calculated.

[3] = system: Lymphatic leukemia L1210; test: Lymphatic leukemia L1210 survival test (survival time increase, long term survival, cure potential); type: in vivo, Female BDF1 mice; details: for minimal effective dose: Mus musculus, L1210, po
Protocol: The experimental design and interpretation of the results are in accordance with the standards set by the CCNSC (see reference (16)) and by the DR&D (see reference (17)).
Experimental animals: Female BDF1 mice
Tumour implants: 10^5 tumour cells implanted intraperitoneally (i. p.)
Therapy: The compounds were administered p. o. once on the day following the implantation.
Termination: The animals were killed on the 60th day after the implantation. Living animals on the 60th day are termed long term survivors.
(a) Evaluation of therapeutic dose range for survival time increase: Survival times at various dose levels are determined, and the survival time of the test animals (t) is expressed as the percentage of that of the control animals (c):
The maximum effective dose and the minimum effective dose required to achieve t·100/c≥125% are determined, and a therapeutic index as defined below is calculated:
T. I.s =max.effect.dose/min.effect.dose.
(b) Evaluation of therapeutic dose range for long term survival: Long time survival is determined at various dose levels and is expressed as surviving test animals on day 60 (T) as the percentage of that of the total number of test animals (To):
The maximum effective dose and the minimum effective dose to achieve long term survival T·100/To >20% are determined and a therapeutic index, T. I.1 s is calculated:
T. I.1s =max.effect.dose/min.effect.dose.
(c) Evaluation of cure potential: The normal survival time for test animals receiving no therapeutic treatment is 9-11 days. Surviving test animals on the 60th day after implantation showing no sign of tumour presence are regarded as cured animals. Long term survival is determined as under (b) above, and the effective dose or dose range to achieve a long term survival T·100/To ≥90% is determined as an evaluation of the cure potential.

[4] = system: Walker carcinosarcoma 256; test: Walker carcinosarcoma 256 tumour growth inhibition (single p.o. dose); type: in vivo, Female Sprague Dawley rats; details: po
Description: as §1, §2, §3, §4, §5
Termination: The animals are killed on the 9th day after implantation
as §6

| SMILES | other types of toxicities ([1]; references (6, 7)) | bone marrow toxicity ([1]; under clinical evaluation, reference (5)) | LD50 [2] | minimal effective dose ([3]; 1440 h, >20% long term survivors on day 60, p.o. once, read-out: Minimum effective dose (long term survival)) | minimal effective dose ([3]; median survival time percent of control ≥ 125%, p.o. once, read-out: Minimum effective dose (survival time increase)) | T.I.s (long term survival; max.effect.dose/min.effect.dose) ([3]; long term survival T·100/To >20%) | Maximum effective dose (survival time increase) ([3]; median survival time percent of control ≥ 125%, p.o. once) | T.I.s = max.effect.dose/min.effect.dose ([3]; survival time increase, t·100/c ≥125%) | Dose or dose range for cure ([3]; ≥90% long term survivors on day 60, p.o. once) | ED50 ([4]; Rattus norvegicus, dose that causes a 50 percent reduction of tumour size, p.o. once, read-out: ED50) | T.I. LD50/ED50 ([4]; rat, in vivo) |
| --- | --- | --- | --- | --- | --- | --- | --- | --- | --- | --- | --- |
| O=NN(CCCl)C(=O)N[C@H]1C(O)O[C@H](CO)[C@@H](O)[C@@H]1O (stereo partly drawn) [Chlorozotocin, 2-/3-(2-chloroethyl)-3-nitrosoureido/-D-glucopyranose] | still evident, e.g. liver and lung toxicity | decreased bone marrow toxicity | – | – | – | – | – | – | – | – | – |
| CN(C)S(=O)(=O)CCCCNC(=O)N(CCCl)N=O [1:24, 1-(2-chloroethyl)-3-(4-/dimethylaminosulfonyl/butyl)-1-nitrosourea] | – | – | 250 mg/kg | 63 mg/kg | 31 mg/kg | 4 | 250 mg/kg | 8 | 125 mg/kg | 2 mg/kg | 125 |

— patent US4613695A, “N-nitroso compounds and compositions containing such compounds” (Aktiebolaget Leo, priority 1982, dated 1986)
